These results are taken from patent publication US6642241B1, “Alkylamino-substituted bicyclic nitrogen heterocycles” (Syntex (U.S.A.) LLC, priority 1999, dated 2003).

Structures can show the parent of a compound that is named as a salt.

As a reminder, the melting point is the temperature, or range, at which the solid turns liquid.

`CCOC(=O)CN1C(=O)N(c2ccccc2Cl)Cc2cnc(NC(C)C)nc21` [Example 1d, 3-(2-chloro-phenyl)-1-ethoxycarbonylmethyl-7-isopropylamino-3,4-dihydropyrimido[4,5-d]pyrimidin-2(1H)-one]: the melting point lay within 188.8 to 191.4 °C.

Take `COCCN1C(=O)N(c2ccccc2Cl)Cc2cnc(NC(C)C)nc21` (as salt: hydrochloride) [Example 2b, 3-(2-chloro-phenyl)-1-(2-methoxy-ethyl)-7-isopropylamino-3,4-dihydropyrimido[4,5-d]pyrimidin-2(1H)-one]: the melting point fell in the range of 126 to 131.6 °C.

For the compound `CC(C)Nc1ncc2c(n1)N(CC(=O)O)C(=O)N(c1ccccc1Cl)C2` [Example 1e, 3-(2-chloro-phenyl)-1-carboxymethyl-7-isopropylamino-3,4-dihydropyrimido[4,5-d]pyrimidin-2(1H)-one], the melting point lay in the range of 172 to 188 °C.
